This is an account of results in paper PMC4914250, “Cancer therapeutic approach based on conformational stabilization of mutant p53 protein by small peptides” (Oncotarget, 2016).

The subject of assay [1] is p53 target genes in MDA231. Nature of the assay: Induction of p53 target genes by qRT-PCR, MDA231. It is filed as cell-based, human. Also on record: key: score 0- no effect-white; score 6- as or more effective than positive control- black. The note with it: score 0-6 compared to positive control. The method, then: RNA was obtained using Macherey-Nagel NucleoSpin RNA II Kit on cells pellet according to the manufacturer's protocol. Aliquots of 0.4-1 μg were reverse transcribed using Bio-RT 2000 (Bio-Lab) and random hexamer primers. QRT-PCR was performed on an ABI 7300 instrument (Applied Biosystems) using SYBR Green FastMix ROX (Quanta). RT-PCR primers (All primers sequences are presented 5′ to 3′): […]

In assay [2] the test system is p53 target genes p21, PUMA and Mdm2 in H1299-tsp53^V135A cells. Nature of the assay: Induction of p53 target genes by qRT-PCR, H1299-tsp53 cells. As to conditions: peptide 5μg/ml, 18 hours, 37°C. It is filed as cell-based, human. The method, then:
Since p53 works primarily as a transcription factor, we tested the ability of lead peptides to induce p53 target gene activation. To that end we used H1299-tsp53^V135A cells, which express temperature sensitive (ts) p53 and allow examination of WT and mutant p53 states in the same cellular background. In the representative experiment shown in Figure 3A, cells were exposed to the indicated peptides (5μg/ml) and then either transferred to 32°C or placed back at 37°C. Cells were harvested 18 hours later, and mRNA was extracted and subjected to qRT-PCR analysis. Expression levels of 3 representative p53 target genes, p21, PUMA and Mdm2, were examined. Values were normalized to non-treated cells at 37°C, and expression at 32°C, where the ts-p53 is in a WT conformation, served as positive control. […] A similar analysis was performed on ES2 ovarian cancer cells, expressing endogenous mp53^S241F, compared to ES2 p53KO cells (Figure 3B).
Figure 3 Peptides binding to p53 and their effect on the expression of p53 target genes A. - Bar graph illustrating the effect of selected peptides on activation of mutp53 by measuring transactivation of p53 target genes as determined by qRT-PCR. H1299 cells stably transfected with mutp53 (ts) A135V were used. The indicated peptides were added directly to the medium at a concentration of 5ug/ml and cells were then either moved to 32°C or returned to 37°C. 18 hours later cells were harvested, extracted for RNA, cDNA was synthesis subjected to qrt time PCR analysis. The expression level of 3 representative p53 target genes, p21, PUMA and Mdm2, were examined. The figure illustrates the relative fold induction of transcription of the cells treated with the selected peptides as compared to non-treated cells. B. - Bar graph illustrating the effect of selected peptides on activation of mutp53 by measuring transactivation of p53 target genes as determined by qRT-PCR. ES2and ES2-p53KO cells were treated with indicated peptides 5ug/ml, for 18 hours. Cells were harvested, and cDNA was subjected to qRT-PCR analysis. Expression of 4 representative p53 target genes, p21, PUMA, Mdm2 and CD95, was examined. The figure illustrates the relative fold induction of transcription in cells treated with the selected peptides compared to non-treated cells. C. - Binding of mutp53 to promoters of representative p53 target genes in live cells, assessed by chromatin immunoprecipitation. BT-549 breast cancer cells endogenously expressing mutant p53^R249S were treated for 5 hours with a mix of 3 pCAPs - 250, 242 and 325. […] DNA cross-linked p53 was immunoprecipitated, and binding to the p53 responsive elements of the PUMA, p21, CD95 and MDM2 gene promoters was quantified by qPCR. […] Results are presented as relative absorbance at 450nm. […]

The test system of assay [3] is recombinant WTp53 or mutp53R175H. The experiment in a line: ELISA of binding of WTp53 and mutp53 to plate-conjugated peptides. As to conditions: peptides conjugated to wells, peptides recruited preferentially WTp53.

As to HANLHHT [pCAP-87], the “PCR MDA231” value in assay [1] is 4.

Consider “SFILFIRRGRLGRRRRRRRRR [pCAP-60R, pCAP-60 with poly arginine tail]”, for which the “expression of the p53 target genes, H1299-tsp53” value (from here on “expression”) in assay [2] was “significant increase”.

Consider SFILFIRRGRLG [pCAP-60], for which the “PCR MDA231” value in assay [1] is given as 2.

Turning to myr-RRIRDPRILLLHFD [pCAP-325], the “PCR MDA231” value in assay [1] was 6.

Take “myr-RRKILFIRLMHNKH [pCAP-227, myristoylated peptide, similarity to GAS2]”: the “PCR MDA231” value in assay [1] is reported as 3.

Take “WNHHHSTPHPAHRRRRRR [pCAP-97R, pCAP-97 with poly arginine tail]”: in assay [1], the “PCR MDA231” value stood at 3. For the same substance, the “expression” value in assay [2] was “significant increase”.

On to “LRCLLLLIGRVGRRRRRRRR [pCAP-24R, pCAP-24 with poly arginine tail]”, for which, in assay [2], the “expression” value was “significant increase”.

As for YRRLLIGMMWRRRRRRRRR [pCAP-68], the “PCR MDA231” value in assay [1] is recorded as 2.

On to IRGRIIR [pCAP-54], for which the “expression” value in assay [2] is given as “significant increase”.

As to myr-RRLIVRILKLPNPPER [pCAP-242], the “PCR MDA231” value in assay [1] is 2. In assay [3], the “recruitment of mutp53 lower than of WTp53” value is given as 50%-80%.

As to WNHHHSTPHPAH [pCAP-97], in assay [1], the “PCR MDA231” value is recorded as 3.

For the substance “myr-PRVLPSPHTIHPSQYP [pCAP-229, myristoylated peptide, similarity to HIPK2]”, in assay [1], the “PCR MDA231” value was 3.

myr-RRKHNKHRPEPDSDER [pCAP-221]: the “PCR MDA231” value in assay [1] is 4. Further, the “recruitment of mutp53 lower than of WTp53” value in assay [3] is listed as 50%-80%.
